For six compounds, EC50 and Emax results are on record in patent publication US20260176320A1, “MODULATORS OF G-PROTEIN COUPLED RECEPTORS” (priority 2018, published 2026).

Usually Emax stands for the maximal effect, on the per cent scale that the assay sets.

SMILES strings stand for the structures. Like-named read-outs stand apart in the source and are kept apart here. Numbered stars: 1 amine (or outer) side, 2 acyl side, 3 side chain; on linkers, the order of the positions; unused ones are H or OH. Square brackets hold non-standard residues; d marks the D form. Side chains are listed from the residue outwards. Peptide text beside a SMILES is read from it. * marks the point of attachment. X8 = O=C([C@@H](Cc1nn[nH]n1)N[*:1])[*:2]; γGlu = O=C(O)[C@H](CCC(=O)[*:2])N[*:1]; Palmitoyl = CCCCCCCCCCCCCCCC(=O)*; X6 = O=C(CSCC(=O)*)NCCN1CCCCC1=O; Aib = CC(C)(N)C(=O)O Bounds are passed on as bounds.

Assay [1] deals with T1, GIP-R (Homo sapiens, UniProt P48546).
T1 sequence (P48546 22-466): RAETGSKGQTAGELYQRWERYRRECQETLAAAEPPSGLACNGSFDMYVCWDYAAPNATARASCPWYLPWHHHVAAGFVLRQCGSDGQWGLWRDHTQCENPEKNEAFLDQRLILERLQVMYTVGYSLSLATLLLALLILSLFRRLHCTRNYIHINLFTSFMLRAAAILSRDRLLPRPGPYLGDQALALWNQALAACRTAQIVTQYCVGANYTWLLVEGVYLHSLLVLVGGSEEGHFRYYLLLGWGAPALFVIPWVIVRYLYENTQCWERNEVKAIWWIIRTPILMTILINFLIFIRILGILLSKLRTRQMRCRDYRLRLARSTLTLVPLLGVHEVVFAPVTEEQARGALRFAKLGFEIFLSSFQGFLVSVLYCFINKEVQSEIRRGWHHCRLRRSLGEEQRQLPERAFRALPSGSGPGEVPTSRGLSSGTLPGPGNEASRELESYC
Description: HitHunter cAMP assay (GIP-R). The format is cell-based. The following applies: cAMP; for Emax: read-out: (Emax) GIP-R. The method in brief:
(§1)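 Cells were resuspended in HBSS plus HEPES, IBMX (625 μM) and BSA, then dispensed with antibody at 10,000 per well. Agonists followed as 22-point twofold series, 30 min at room temperature. Antibody reagent and detection steps ran 1 h and overnight in the dark before luminescence.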
On the technique in general: Changes in cAMP serve as a functional read-out for many G protein-coupled receptors.

The target of assay [2] is GLP-1R (Homo sapiens, UniProt P43220). The assay is described as follows: HitHunter cAMP assay (GLP-1R). The format is cell-based. The following applies: cAMP; for Emax: read-out: (Emax) GLP-1R. In a few lines: as §1
Sequence of GLP-1R (P43220 24-463): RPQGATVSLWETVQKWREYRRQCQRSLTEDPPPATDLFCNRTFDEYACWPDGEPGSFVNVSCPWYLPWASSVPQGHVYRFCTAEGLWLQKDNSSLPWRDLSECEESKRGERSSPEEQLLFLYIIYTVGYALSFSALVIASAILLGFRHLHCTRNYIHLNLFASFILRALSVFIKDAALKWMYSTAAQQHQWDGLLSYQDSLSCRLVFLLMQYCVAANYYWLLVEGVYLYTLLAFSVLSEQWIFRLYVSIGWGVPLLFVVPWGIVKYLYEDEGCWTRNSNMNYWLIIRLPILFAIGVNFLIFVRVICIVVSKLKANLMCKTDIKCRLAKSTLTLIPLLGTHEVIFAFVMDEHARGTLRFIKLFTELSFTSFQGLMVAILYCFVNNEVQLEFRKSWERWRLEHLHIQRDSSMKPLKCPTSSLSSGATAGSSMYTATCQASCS
The mark [3] stands for this setting: Table 3A, read-out: EC50 GIP-R/nM.
Setting [4] is: Table 3A, read-out: EC50 GLP-1R/nM.

For the compound `CCCCCCCCCCCCCCCC(=O)N[C@@H](CCC(=O)NCCCC[C@H](NC(=O)[C@H](CO)NC(=O)[C@@H]1CCCN1C(=O)[C@@H]1CCCN1C(=O)[C@@H]1CCCN1C(=O)[C@H](C)NC(=O)CNC(=O)[C@H](CO)NC(=O)[C@H](CO)NC(=O)[C@@H]1CCCN1C(=O)CNC(=O)CNC(=O)[C@H](C)NC(=O)[C@H](CC(C)C)NC(=O)[C@H](CC(C)C)NC(=O)[C@H](Cc1c[nH]c2ccccc12)NC(=O)[C@H](CC(N)=O)NC(=O)[C@@H](NC(=O)[C@H](Cc1ccccc1)NC(=O)[C@H](CCC(=O)O)NC(=O)C(C)(C)NC(=O)[C@H](C)NC(=O)[C@H](C)NC(=O)[C@H](CCC(N)=O)NC(=O)[C@H](CCCCN)NC(=O)[C@H](CC(=O)O)NC(=O)[C@H](CC(C)C)NC(=O)[C@H](Cc1ccc(O)cc1)NC(=O)[C@@H](NC(=O)[C@H](CO)NC(=O)[C@H](Cc1ccc(O)cc1)NC(=O)[C@H](CC(=O)O)NC(=O)[C@H](CO)NC(=O)[C@@H](NC(=O)[C@H](Cc1ccccc1)NC(=O)[C@@H](NC(=O)CNC(=O)[C@H](CCC(=O)O)NC(=O)CSCC(=O)NCCN1C(=O)C[C@H](OC)C1=O)[C@@H](C)O)[C@@H](C)O)[C@@H](C)CC)C(C)C)C(N)=O)C(=O)O` [Compound 49], the EC50 in assay [1] (EC50 GIP-R/nM, Table 3) was 0.1 to 1 nM; in assay [1] (EC50 GIP-R/nM, Table 3A), 0.1 to 1 nM; in assay [2] (EC50 GLP-1R/nM, Table 3), 0.1 to 1 nM; in assay [2] (EC50 GLP-1R/nM, Table 3A) it was 0.1 to 1 nM. Besides, the Emax came out at 48% in assay [1] (Table 3), 48% in assay [1] (Table 3A), 101% in assay [2] (Table 3) and 101% in assay [2] (Table 3A).

`CCCCCCCCCCCCCCCC(=O)N[C@@H](CCC(=O)NCCCC[C@H](NC(=O)[C@H](CO)NC(=O)[C@@H]1CCCN1C(=O)[C@@H]1CCCN1C(=O)[C@@H]1CCCN1C(=O)[C@H](C)NC(=O)CNC(=O)[C@H](CO)NC(=O)[C@H](CO)NC(=O)[C@@H]1CCCN1C(=O)CNC(=O)CNC(=O)[C@H](C)NC(=O)[C@H](CC(C)C)NC(=O)[C@H](CC(C)C)NC(=O)[C@H](Cc1c[nH]c2ccccc12)NC(=O)[C@H](CC(N)=O)NC(=O)[C@@H](NC(=O)[C@H](Cc1ccccc1)NC(=O)[C@H](CCC(=O)O)NC(=O)C(C)(C)NC(=O)[C@H](C)NC(=O)[C@H](C)NC(=O)[C@H](CCC(N)=O)NC(=O)[C@H](CCCCN)NC(=O)[C@H](CC(=O)O)NC(=O)[C@H](CC(C)C)NC(=O)[C@H](Cc1ccc(O)cc1)NC(=O)[C@@H](NC(=O)[C@H](CO)NC(=O)[C@H](Cc1ccc(O)cc1)NC(=O)[C@H](CC(=O)O)NC(=O)[C@H](CO)NC(=O)[C@@H](NC(=O)[C@H](Cc1ccccc1)NC(=O)[C@@H](NC(=O)CNC(=O)[C@H](CCC(=O)O)NC(=O)CSCC(=O)NCCN1C(=O)c2cccc3cccc(c23)C1=O)[C@@H](C)O)[C@@H](C)O)[C@@H](C)CC)C(C)C)C(N)=O)C(=O)O` [Compound 248]: the maximum response (Emax) in assay [1] (Table 3A) is 105%; in assay [2] (Table 3A) it was 80%. For the same compound, the EC50 was in the range of 1 to 10 nM in assay [1] (setting [3]) and 10 to 100 nM in assay [2] (setting [4]).

For the compound `CCCCCCCCCCCCCCCC(=O)N[C@@H](CCC(=O)NCCCC[C@H](NC(=O)[C@H](CO)NC(=O)[C@@H]1CCCN1C(=O)[C@@H]1CCCN1C(=O)[C@@H]1CCCN1C(=O)[C@H](C)NC(=O)CNC(=O)[C@H](CO)NC(=O)[C@H](CO)NC(=O)[C@@H]1CCCN1C(=O)CNC(=O)CNC(=O)[C@H](C)NC(=O)[C@H](CC(C)C)NC(=O)[C@H](CC(C)C)NC(=O)[C@H](Cc1c[nH]c2ccccc12)NC(=O)[C@H](CC(N)=O)NC(=O)[C@@H](NC(=O)[C@H](Cc1ccccc1)NC(=O)[C@H](CCC(=O)O)NC(=O)C(C)(C)NC(=O)[C@H](C)NC(=O)[C@H](C)NC(=O)[C@H](CCC(N)=O)NC(=O)[C@H](CCCCN)NC(=O)[C@H](CC(=O)O)NC(=O)[C@H](CC(C)C)NC(=O)[C@H](Cc1ccc(O)cc1)NC(=O)[C@@H](NC(=O)[C@H](CO)NC(=O)[C@H](Cc1ccc(O)cc1)NC(=O)[C@H](CC(=O)O)NC(=O)[C@H](CO)NC(=O)[C@@H](NC(=O)[C@H](Cc1ccccc1)NC(=O)[C@@H](NC(=O)CNC(=O)[C@@H](CCC(=O)O)NC(=O)CSCC(=O)NCCN1C(=O)CSC1=O)[C@@H](C)O)[C@@H](C)O)[C@@H](C)CC)C(C)C)C(N)=O)C(=O)O` [Compound 53], the Emax in assay [1] (Table 3) is 62%; in assay [1] (Table 3A), 62%; in assay [2] (Table 3), 99%; in assay [2] (Table 3A) it was 99%. The EC50 fell in the range of 1 to 10 nM in assay [1] (Table 3, read-out: EC50 GIP-R/nM); 1 to 10 nM in assay [1] (setting [3]); 1 to 10 nM in assay [2] (Table 3, read-out: EC50 GLP-1R/nM); 1 to 10 nM in assay [2] (setting [4]).

As to `CCCCCCCCCCCCCCCC(=O)N[C@@H](CCC(=O)NCCCC[C@H](NC(=O)[C@H](CO)NC(=O)[C@@H]1CCCN1C(=O)[C@@H]1CCCN1C(=O)[C@@H]1CCCN1C(=O)[C@H](C)NC(=O)CNC(=O)[C@H](CO)NC(=O)[C@H](CO)NC(=O)[C@@H]1CCCN1C(=O)CNC(=O)CNC(=O)[C@H](C)NC(=O)[C@H](CC(C)C)NC(=O)[C@H](CC(C)C)NC(=O)[C@H](Cc1c[nH]c2ccccc12)NC(=O)[C@H](CC(N)=O)NC(=O)[C@@H](NC(=O)[C@H](Cc1ccccc1)NC(=O)[C@H](CCC(=O)O)NC(=O)C(C)(C)NC(=O)[C@H](C)NC(=O)[C@H](C)NC(=O)[C@H](CCC(N)=O)NC(=O)[C@H](CCCCN)NC(=O)[C@H](CC(=O)O)NC(=O)[C@H](CC(C)C)NC(=O)[C@H](Cc1ccc(O)cc1)NC(=O)[C@@H](NC(=O)[C@H](CO)NC(=O)[C@H](Cc1ccc(O)cc1)NC(=O)[C@H](CC(=O)O)NC(=O)[C@H](CO)NC(=O)[C@@H](NC(=O)[C@H](Cc1ccccc1)NC(=O)[C@@H](NC(=O)CNC(=O)[C@H](CCC(=O)O)NC(=O)CSCC(=O)NCCN1C(=O)[C@@H]2C=C[C@H]1C2)[C@@H](C)O)[C@@H](C)O)[C@@H](C)CC)C(C)C)C(N)=O)C(=O)O` [Compound 290], the EC50 in assay [1] (EC50 GIP-R/nM, Table 3A) was 10 to 100 nM; in assay [2] (EC50 GLP-1R/nM, Table 3A), less than 0.1 nM. Moreover, the Emax in assay [1] (Table 3A) is 10%; in assay [2] (Table 3A), 100%.

`CCCCCCCCCCCCCCCC(=O)N[C@@H](CCC(=O)NCCCC[C@H](NC(=O)[C@H](CO)NC(=O)[C@@H]1CCCN1C(=O)[C@@H]1CCCN1C(=O)[C@@H]1CCCN1C(=O)[C@H](C)NC(=O)CNC(=O)[C@H](CO)NC(=O)[C@H](CO)NC(=O)[C@@H]1CCCN1C(=O)CNC(=O)CNC(=O)[C@H](C)NC(=O)[C@H](CC(C)C)NC(=O)[C@H](CC(C)C)NC(=O)[C@H](Cc1c[nH]c2ccccc12)NC(=O)[C@H](CC(N)=O)NC(=O)[C@@H](NC(=O)[C@H](Cc1ccccc1)NC(=O)[C@H](CCC(=O)O)NC(=O)C(C)(C)NC(=O)[C@H](C)NC(=O)[C@H](C)NC(=O)[C@H](CCC(N)=O)NC(=O)[C@H](CCCCN)NC(=O)[C@H](CC(=O)O)NC(=O)[C@H](CC(C)C)NC(=O)[C@H](Cc1ccc(O)cc1)NC(=O)[C@@H](NC(=O)[C@H](CO)NC(=O)[C@H](Cc1ccc(O)cc1)NC(=O)[C@H](CC(=O)O)NC(=O)[C@H](CO)NC(=O)[C@@H](NC(=O)[C@H](Cc1ccccc1)NC(=O)[C@@H](NC(=O)CNC(=O)[C@@H](Cc1nn[nH]n1)NC(=O)CSCC(=O)NCCN1CCCCC1=O)[C@@H](C)O)[C@@H](C)O)[C@@H](C)CC)C(C)C)C(N)=O)C(=O)O` [Compound 224] (X6-[X8]GTFTSDYSIYLDKQAA[Aib]EFVNWLLAGGPSSGAPPPSK([γGlu-Palmitoyl])-NH2): the Emax in assay [1] (Table 3A) stood at 76%; in assay [2] (Table 3A), 98%. Further, the EC50 is 10 to 100 nM in assay [1] (setting [3]) and 0.1 to 1 nM in assay [2] (setting [4]).

As to `CCCCCCCCCCCCCCCC(=O)N[C@@H](CCC(=O)NCCCC[C@H](NC(=O)[C@H](CO)NC(=O)[C@@H]1CCCN1C(=O)[C@@H]1CCCN1C(=O)[C@@H]1CCCN1C(=O)[C@H](C)NC(=O)CNC(=O)[C@H](CO)NC(=O)[C@H](CO)NC(=O)[C@@H]1CCCN1C(=O)CNC(=O)CNC(=O)[C@H](C)NC(=O)[C@H](CC(C)C)NC(=O)[C@H](CC(C)C)NC(=O)[C@H](Cc1c[nH]c2ccccc12)NC(=O)[C@H](CC(N)=O)NC(=O)[C@@H](NC(=O)[C@H](Cc1ccccc1)NC(=O)[C@H](CCC(=O)O)NC(=O)C(C)(C)NC(=O)[C@H](C)NC(=O)[C@H](C)NC(=O)[C@H](CCC(N)=O)NC(=O)[C@H](CCCCN)NC(=O)[C@H](CC(=O)O)NC(=O)[C@H](CC(C)C)NC(=O)[C@H](Cc1ccc(O)cc1)NC(=O)[C@@H](NC(=O)[C@H](CO)NC(=O)[C@H](Cc1ccc(O)cc1)NC(=O)[C@H](CC(=O)O)NC(=O)[C@H](CO)NC(=O)[C@@H](NC(=O)[C@H](Cc1ccccc1)NC(=O)[C@@H](NC(=O)CNC(=O)[C@H](CCC(=O)O)NC(=O)CSCC(=O)NCCN1C(=O)CC(c2ccccc2)C1=O)[C@@H](C)O)[C@@H](C)O)[C@@H](C)CC)C(C)C)C(N)=O)C(=O)O` (mixture of isomers) [Compound 99], the EC50 in assay [1] (EC50 GIP-R/nM, Table 3) is greater than 1000 nM; in assay [1] (read-out: EC50 GIP-R/nM, Table 3A), greater than 1000 nM; in assay [2] (EC50 GLP-1R/nM, Table 3), 1 to 10 nM; in assay [2] (EC50 GLP-1R/nM, Table 3A), 1 to 10 nM. The Emax at 1 µM in assay [1] (read-out: (Emax) GIP-R at 1 μM, Table 3, at 1 μM) was determined as 11%. Besides, the Emax in assay [2] (Table 3) and in assay [2] (Table 3A) was 102% throughout.
